≈ marks a conversion by molar mass, not a printed value.
Columns and labels:
[1] = test system: canine primary dermal fibroblasts (CDF); assay: Trypan blue exclusion assay, dermal fibroblasts; assay type: cell-based; settings: 48 hours, vehicle control 16±3%
Method: (§1) The trypan blue exclusion assay is performed on canine primary dermal fibroblasts (CDF) because of the slow rate of proliferation and low metabolic activity of these normal canine cells, precluding productive MTT assays. The effects of CBD treatments are compared with the results obtained on the 17-71, CMT12 and D17 cell lines for comparative purposes. For the CDF cells, applied cell extracellular matrix (ABM) is applied overnight to 24-well tissue culture-treated plates (Applied Biological Materials [ABM], Richmond, BC, Canada). For all cell lines, cells are plated at a density of 5×10^3 cells per well and incubated until 60% confluent before treatment with methanol vehicle control, 3.75, 7.5, and 15 μg/mL of CBD to cells for 48 hours. Cells are then trypsinized, collected and centrifuged at 1900 g for 10 minutes. With the exception of the 17-71 cell line, cells are detached with Accumax (Invitrogen, Carlsbad, California). The cell pellet is resuspended in 0.1% trypan blue (Sigma Aldrich, St Louis, Missouri) in PBS solution, loaded on a Cell Countess disposable cell counting slide with automatic counting of all positively stained cells in the Countess II Cell Counter under identical settings for each cell line (Invitrogen; ThermoFisher Scientific, Carlsbad, California) using the same parameters for each cell line. All treatments are performed in triplicate and the percent of viable cells are averaged.

D17 cells [2] = assay: Trypan blue exclusion assay, D17; assay type: cell-based, canine; settings: 48 hours, vehicle control 5±1%
Method: as §1

[3] = test system: Abrams osteosarcoma cell line; assay: 48 hours MTT proliferation assay, Abrams; assay type: cell-based, canine; settings: pure compound
Method: (§2) 3-(4,5-Dimethylthaizol-2-yl)-2,5-diphenyltetrazolium bromide (MTT) assays are performed on all previously described cell lines; CMT12, HMPOS, D17, Abrams and 17-71. […] Cells are treated with vehicle (methanol or ethanol/DMSO mix) or various concentrations of the CBD, CBDA or CBD-rich hemp extract ranging from 0.42 to 20 μg/mL in serial dilution for 48 hours. MTT assays are performed after 48 hours of treatment by adding 20 μL of MTT dye ([…] filtered 5 mg/mL in phosphate-buffered saline [PBS]) to each well and incubating at 37° C. in 5% CO2 for 2 hours. The media is then aspirated, washed once with 200 μL of PBS and then solubilized in 200 μL of ethanol. Immediate analysis of the optical density of each well is performed using a spectrophotometric plate reader (Epoch; Biotek, Winooski, Vermont) at a wavelength of 570 nm as previously described (e.g., Vega-Avila E and Pugsley M K, An overview of colorimetric assay methods used to assess survival or proliferation of mammalian cells, Proc West Pharmacol Soc., 2011, 54, pp. 10-14 which is incorporated herein by reference in its entirety). The percent proliferating cells of control for each concentration is averaged and reported as a mean+/—SD from triplicate wells over three experiments.
(§3) For CBD, CBDA and hemp extract concentrations needed to obtain a 50% inhibition of cell proliferation (IC50) are then calculated across experiments by Probit analysis using XLFit5 software (IDBS, Guildford, United Kingdom) for reporting the results for each cell line.

[4] = test system: D17 osteosarcoma cell line; assay: 48 hours MTT proliferation assay, D17; assay type: cell-based, canine; settings: pure compound
Method: as §2, §3

[5] = Single-dose oral pharmacokinetics of CBD in healthy cats; assay type: in vivo; settings: serum, single oral dose 2 mg/kg total CBD/CBDA
Method: (§4) The single-dose oral pharmacokinetics of CBD and an assessment of safety and adverse effects during 12-week administration using a hemp-based product in healthy dogs and cats were determined in this study. […] More details about this study can be found in “Deabold, K. A.; Schwark, W. S.; Wolf, L.; Wakshlag, J. J., Single Dose Pharmacokinetics and Preliminary Safety Assessment with Use of CBD-Rich Hemp Nutraceutical in Healthy Dogs and Cats, Animals 2019, 9, 832, DOI 10.3390/ani9100832,” which is incorporated herein by reference in its entirety.

[6] = test system: 17-71 B cell lymphoma cell line; assay: 48 hours MTT proliferation assay, 17-71; assay type: cell-based, canine; settings: pure compound
Method: as §2, §3

[7] = Single-dose oral pharmacokinetics of CBD in healthy dogs; assay type: in vivo; settings: dog, serum
Method: as §4

D17 cells [8] = assay: Annexin V-FITC apoptosis assay, D17; assay type: cell-based, canine; settings: 15 μg/mL CBD, 4 hours, VC 6.5±0.6%
Method: Apoptosis after 4 and 8 hours treatment is measured using Annexin-V staining (Invitrogen Annexin V-FITC staining kit, Carlsbad, California). Briefly, cells are detached with Accumax (Innovative Cell Technologies, San Diego, California), collected and centrifuged for 10 m at 1000 g at 4° C. The pellet is washed once with PBS before resuspension in Annexin Binding Buffer (ABB; 10 mM HEPES, 140 mM NaCl, 2.5 mM CaCl2, pH 7.4) at a density of approximately 1×10^6 cell/mL. […] After the incubation, ABB is added to the cell suspension and kept on ice until fluorescence is measured with the BD FACScalibur flow cytometer using an argon laser (BD Biosciences, Ashland, Oregon). Ten thousand events are collected per sample. Analysis is performed with the FlowJo software (Version 10.7.1. Becton, Dickinson, Ashland, Oregon) by first gating based on the forward- and side-scatter characteristics for each cell line followed by Annexin V-FITC positive cells. Negative fluorescence controls are unstained cells. Three independent replicates are examined for each treatment.

[9] = Canis lupus familiaris, read-out: IC50 (Probit)

For C=C(C)[C@@H]1CCC(C)=C[C@H]1c1c(O)cc(CCCCC)cc1O [CBD, cannabidiol], the “percent trypan blue positive cells” value ([1]; 3.75 μg/mL CBD) was 32±5%, the “percent trypan blue positive cells” value ([1]; 7.5 μg/mL CBD) was 58±7% and the “percent trypan blue positive cells” value ([1]; 15 μg/mL CBD) was 77±12%. The “percent trypan blue positive cells” value (D17 cells [2]; 3.75 μg/mL CBD) was 4±2%, the “percent trypan blue positive cells” value (D17 cells [2]; 7.5 μg/mL CBD) was 5±2% and the “percent trypan blue positive cells” value (D17 cells [2]; 15 μg/mL CBD) was 35±4%. The IC50 [3, 9] was 4.1 µg/mL (≈ 13 µM), the “concentrations that significantly diminished proliferation vs vehicle control” value ([3]; P<0.05) was ≥ 5 µg/mL and the IC50 [4, 9] was 4.1 µg/mL (≈ 13 µM). The “concentrations that significantly diminished proliferation vs vehicle control” value ([4]; P<0.05) was ≥ 5 µg/mL, the AUC ([5]; read-out: area under the curve (AUC)) was 164 ng·h/mL and the Cmax ([5]; read-out: mean maximum CBD concentration (Cmax)) was 43 ng/mL. The Tmax ([5]; read-out: time to maximal concentration (Tmax)) was 2 h, the IC50 ([6]; Canis lupus familiaris, B-cell, read-out: IC50 (Probit)) was 2.5 µg/mL (≈ 7.95 µM) and the “concentrations that significantly diminished proliferation vs vehicle control” value ([6]; P<0.05) was ≥ 2.5 µg/mL. For the same compound, the Cmax ([7]; single oral dose 2 mg/kg total CBD/CBDA (1 mg/kg CBD and 1 mg/kg CBDA), read-out: mean maximum CBD concentration (Cmax)) was 301 ng/mL, the AUC ([7]; single oral dose 2 mg/kg total CBD/CBDA, read-out: area under the curve (AUC)) was 1300 ng·h/mL and the Tmax ([7]; single oral dose 2 mg/kg total CBD/CBDA, read-out: time to maximal concentration (Tmax)) was 1.4 h. The “Annexin V positive staining cells” value (D17 cells [8]) was 9.4±1.8%.
